This assay has as its target T1, ERBB4 (HER4) (Homo sapiens, UniProt Q15303).
T1 construct: purchased Thermo Fisher Scientific (Life Technologies) SelectScreen
Briefly: SelectScreen Z'LYTE. In kind it is biochemical. Put shortly: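 Percent values come from Thermo SelectScreen profiling of NU5455, combining activity and binding assays. CSF1R was run in Z'LYTE format at Km app ATP, and CAMK1 in Adapta format with ATP listed at 10.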

T1 sequence (Q15303 26-1308): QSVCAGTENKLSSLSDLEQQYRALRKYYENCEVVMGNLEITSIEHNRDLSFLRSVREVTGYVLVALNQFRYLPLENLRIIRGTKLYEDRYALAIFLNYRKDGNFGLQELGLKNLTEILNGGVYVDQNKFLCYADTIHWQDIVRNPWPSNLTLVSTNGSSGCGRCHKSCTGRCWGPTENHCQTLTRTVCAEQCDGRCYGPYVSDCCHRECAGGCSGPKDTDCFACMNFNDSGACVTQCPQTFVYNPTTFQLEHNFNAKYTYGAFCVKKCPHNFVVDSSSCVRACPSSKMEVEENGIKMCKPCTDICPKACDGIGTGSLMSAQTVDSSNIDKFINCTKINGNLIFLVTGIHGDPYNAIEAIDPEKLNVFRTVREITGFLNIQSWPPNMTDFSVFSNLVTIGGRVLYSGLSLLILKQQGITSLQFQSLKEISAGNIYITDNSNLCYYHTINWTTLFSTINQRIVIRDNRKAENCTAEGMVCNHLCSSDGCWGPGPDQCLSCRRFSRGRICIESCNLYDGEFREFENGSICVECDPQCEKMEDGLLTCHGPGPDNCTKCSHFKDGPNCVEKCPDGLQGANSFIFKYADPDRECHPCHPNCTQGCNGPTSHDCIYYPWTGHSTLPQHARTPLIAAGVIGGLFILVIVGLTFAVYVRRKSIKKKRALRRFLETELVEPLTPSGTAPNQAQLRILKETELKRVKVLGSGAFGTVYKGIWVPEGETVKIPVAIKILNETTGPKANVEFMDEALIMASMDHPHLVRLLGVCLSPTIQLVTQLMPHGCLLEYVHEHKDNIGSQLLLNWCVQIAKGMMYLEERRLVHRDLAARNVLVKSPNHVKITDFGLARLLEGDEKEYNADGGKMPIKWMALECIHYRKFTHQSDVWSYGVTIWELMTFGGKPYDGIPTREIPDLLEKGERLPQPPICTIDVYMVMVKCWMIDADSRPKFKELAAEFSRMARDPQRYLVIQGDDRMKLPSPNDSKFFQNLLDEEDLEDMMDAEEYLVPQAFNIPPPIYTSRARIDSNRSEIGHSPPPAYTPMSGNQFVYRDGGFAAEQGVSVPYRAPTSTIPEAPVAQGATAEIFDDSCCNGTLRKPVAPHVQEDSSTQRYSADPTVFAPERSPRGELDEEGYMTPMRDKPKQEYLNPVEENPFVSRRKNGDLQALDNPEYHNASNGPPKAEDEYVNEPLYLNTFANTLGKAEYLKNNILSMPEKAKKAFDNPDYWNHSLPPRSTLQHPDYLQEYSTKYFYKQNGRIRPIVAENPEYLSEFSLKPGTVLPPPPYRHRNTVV

A word on the inhibition: it is the change of the read-out against control, counted positive when it falls. As to `CN(C(=O)CN1CCOCC1)c1ccc2sc3c(-c4cccc5c(=O)cc(N6CC7CCC(C6)O7)oc45)cccc3c2c1` [NU5455], the inhibition at 1 µM is -2.8%.

For the origin of these results see article PMC6934184, “Selective DNA-PKcs inhibition extends the therapeutic index of localized radiotherapy and chemotherapy” (The Journal of Clinical Investigation, 2019).
